From the supplement of paper PMC5722580

Legend:
SNK6 = assay: drug sensitivity score (viability inhibition); higher = more sensitive; settings: 72 h; IL2 2.5 ng/ml
Protocol: (§1)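 NK-cell leukemia/lymphoma cell lines (3,000 cells/well) were cultured with IL2 2.5 ng/ml in 384-well drug plates (5-8 concentrations over a 10,000-fold range) for 72 h at 37 C; viability was read with CellTiter-Glo. DSS is a normalised area under the dose-response curve; the experiment was repeated twice.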

KHYG-1 = assay: as above; settings: 72 h; IL2 2.5 ng/ml
Protocol: as §1

NK-YS = assay: as above; settings: 72 h; IL2 2.5 ng/ml
Protocol: as §1

YT = assay: as above; settings: 72 h; IL2 2.5 ng/ml
Protocol: as §1

KAI3 = assay: as above; settings: 72 h; IL2 2.5 ng/ml
Protocol: as §1

NK-92 = assay: as above; settings: 72 h; IL2 2.5 ng/ml
Protocol: as §1

NKL = assay: as above; settings: 72 h; IL2 2.5 ng/ml
Protocol: as §1

HEK293-SIE STAT3 WT = assay: drug sensitivity score (inhibition of STAT3 luciferase reporter); higher = stronger inhibition; settings: 6 h; STAT3: WT; IL6 100 ng/ml
Protocol: (§2)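 HEK293 cells with a STAT3-inducible (SIE) luciferase reporter, stably expressing WT STAT3 (IL6 100 ng/ml) or Y640F STAT3 (no IL6), were incubated 6 h with drugs in 384-well plates (5-8 concentrations over a 10,000-fold range); luciferase was read with ONE-Glo. DSS is a normalised area under the dose-response curve; values are the mean of two experiments.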

HEK293-SIE STAT3 Y640F = assay: as above; settings: 6 h; IL6 0 ng/ml
Protocol: as §2

CNC(=O)c1ccccc1Sc1ccc2c(/C=C/c3ccccn3)n[nH]c2c1 [Axitinib]
drug sensitivity score (SNK6): 8.94 DSS
drug sensitivity score (KHYG-1): 10.9 DSS
drug sensitivity score (NK-YS): 10.2 DSS
drug sensitivity score (YT): 8.91 DSS
drug sensitivity score (KAI3): 10.9 DSS
drug sensitivity score (NK-92): 6.72 DSS
drug sensitivity score (NKL): 8.05 DSS
drug sensitivity score (HEK293-SIE STAT3 WT): 0 DSS
drug sensitivity score (HEK293-SIE STAT3 Y640F): 0 DSS

CNC(=O)c1cc(Oc2ccc(NC(=O)Nc3ccc(Cl)c(C(F)(F)F)c3)cc2)ccn1 [Sorafenib]
drug sensitivity score (SNK6): 4.36 DSS
drug sensitivity score (KHYG-1): 0.013 DSS
drug sensitivity score (NK-YS): 0.00415 DSS
drug sensitivity score (YT): 0 DSS
drug sensitivity score (KAI3): 0 DSS
drug sensitivity score (NK-92): 0.365 DSS
drug sensitivity score (NKL): 0 DSS
drug sensitivity score (HEK293-SIE STAT3 WT): 2.1 DSS
drug sensitivity score (HEK293-SIE STAT3 Y640F): 1.6 DSS

Cc1sc2c(c1C)C(c1ccc(Cl)cc1)=N[C@@H](CC(=O)OC(C)(C)C)c1nnc(C)n1-2 [(+)-JQ1]
drug sensitivity score (SNK6): 12.4 DSS
drug sensitivity score (KHYG-1): 18.9 DSS
drug sensitivity score (NK-YS): 15.9 DSS
drug sensitivity score (YT): 11.1 DSS
drug sensitivity score (KAI3): 4.93 DSS
drug sensitivity score (NK-92): 3.16 DSS
drug sensitivity score (NKL): 13.7 DSS
drug sensitivity score (HEK293-SIE STAT3 WT): 16.6 DSS
drug sensitivity score (HEK293-SIE STAT3 Y640F): 0 DSS

O=P1(N(CCCl)CCCl)NCCCO1 (stereo not drawn) [Cyclophosphamide]
drug sensitivity score (SNK6): 0.54 DSS
drug sensitivity score (KHYG-1): 0 DSS
drug sensitivity score (NK-YS): 0.435 DSS
drug sensitivity score (YT): 0 DSS
drug sensitivity score (KAI3): 1.89 DSS
drug sensitivity score (NK-92): 0 DSS
drug sensitivity score (NKL): 0 DSS
drug sensitivity score (HEK293-SIE STAT3 WT): 2.6 DSS
drug sensitivity score (HEK293-SIE STAT3 Y640F): 1.17 DSS

C[C@]12C=CC(=O)C=C1CC[C@@H]1[C@@H]2[C@@H](O)C[C@@]2(C)[C@H]1CC[C@]2(O)C(=O)CO [Prednisolone]
drug sensitivity score (SNK6): 2.12 DSS
drug sensitivity score (KHYG-1): 6.65 DSS
drug sensitivity score (NK-YS): 1.37 DSS
drug sensitivity score (YT): 5.05 DSS
drug sensitivity score (KAI3): 0 DSS
drug sensitivity score (NK-92): 0 DSS
drug sensitivity score (NKL): 11 DSS
drug sensitivity score (HEK293-SIE STAT3 WT): 0 DSS
drug sensitivity score (HEK293-SIE STAT3 Y640F): 0 DSS

O=[N+]([O-])c1ccc2c(c1)S(=O)(=O)C=C2 [Stattic]
drug sensitivity score (SNK6): 14.1 DSS
drug sensitivity score (KHYG-1): 13.3 DSS
drug sensitivity score (NK-YS): 12.4 DSS
drug sensitivity score (YT): 14.6 DSS
drug sensitivity score (KAI3): 14.3 DSS
drug sensitivity score (NK-92): 13.2 DSS
drug sensitivity score (NKL): 10.7 DSS
drug sensitivity score (HEK293-SIE STAT3 WT): 8.32 DSS
drug sensitivity score (HEK293-SIE STAT3 Y640F): 7.37 DSS

Cc1ccc(C(=O)Nc2ccc(CN3CCN(C)CC3)c(C(F)(F)F)c2)cc1C#Cc1cnc2cccnn12 [Ponatinib]
drug sensitivity score (SNK6): 0 DSS
drug sensitivity score (KHYG-1): 3.2 DSS
drug sensitivity score (NK-YS): 2.28 DSS
drug sensitivity score (YT): 4.26 DSS
drug sensitivity score (KAI3): 3.2 DSS
drug sensitivity score (NK-92): 1.39 DSS
drug sensitivity score (NKL): 4.93 DSS
drug sensitivity score (HEK293-SIE STAT3 WT): 2.95 DSS
drug sensitivity score (HEK293-SIE STAT3 Y640F): 2.8 DSS

CN1CCN(CCOc2cc(OC3CCOCC3)c3c(Nc4c(Cl)ccc5c4OCO5)ncnc3c2)CC1 [Saracatinib]
drug sensitivity score (SNK6): 0.135 DSS
drug sensitivity score (KHYG-1): 2.88 DSS
drug sensitivity score (NK-YS): 2.03 DSS
drug sensitivity score (YT): 2.46 DSS
drug sensitivity score (KAI3): 2.15 DSS
drug sensitivity score (NK-92): 3.28 DSS
drug sensitivity score (NKL): 1.25 DSS
drug sensitivity score (HEK293-SIE STAT3 WT): 0 DSS
drug sensitivity score (HEK293-SIE STAT3 Y640F): 1.9 DSS

COc1ccccc1S(=O)(=O)Nc1ccc2c(c1)CN(C)C(=O)N2 [PFI-1]
drug sensitivity score (SNK6): 4.16 DSS
drug sensitivity score (KHYG-1): 7.25 DSS
drug sensitivity score (NK-YS): 6.22 DSS
drug sensitivity score (YT): 3.24 DSS
drug sensitivity score (KAI3): 1.7 DSS
drug sensitivity score (NK-92): 0.03 DSS
drug sensitivity score (NKL): 4.02 DSS
drug sensitivity score (HEK293-SIE STAT3 WT): 6.65 DSS
drug sensitivity score (HEK293-SIE STAT3 Y640F): 0 DSS

O=C(NC[C@H](O)CO)c1ccncc1Nc1ccc(I)cc1F [Pimasertib]
drug sensitivity score (SNK6): 0.301 DSS
drug sensitivity score (KHYG-1): 15.8 DSS
drug sensitivity score (NK-YS): 2.47 DSS
drug sensitivity score (YT): 0.0567 DSS
drug sensitivity score (KAI3): 4.56 DSS
drug sensitivity score (NK-92): 0 DSS
drug sensitivity score (NKL): 11 DSS
drug sensitivity score (HEK293-SIE STAT3 WT): 3.4 DSS
drug sensitivity score (HEK293-SIE STAT3 Y640F): 2.03 DSS

N#CCNC(=O)c1ccc(-c2ccnc(Nc3ccc(N4CCOCC4)cc3)n2)cc1 [Momelotinib]
drug sensitivity score (SNK6): 8.25 DSS
drug sensitivity score (KHYG-1): 18.9 DSS
drug sensitivity score (NK-YS): 10.8 DSS
drug sensitivity score (YT): 8.12 DSS
drug sensitivity score (KAI3): 13.9 DSS
drug sensitivity score (NK-92): 10.1 DSS
drug sensitivity score (NKL): 15.9 DSS
drug sensitivity score (HEK293-SIE STAT3 WT): 24.2 DSS
drug sensitivity score (HEK293-SIE STAT3 Y640F): 12.4 DSS

FC(F)c1nc2ccccc2n1-c1nc(N2CCOCC2)nc(N2CCOCC2)n1 [ZSTK474]
drug sensitivity score (SNK6): 7.75 DSS
drug sensitivity score (KHYG-1): 2.23 DSS
drug sensitivity score (NK-YS): 9.54 DSS
drug sensitivity score (YT): 7.9 DSS
drug sensitivity score (KAI3): 5.42 DSS
drug sensitivity score (NK-92): 12.8 DSS
drug sensitivity score (NKL): 9.94 DSS
drug sensitivity score (HEK293-SIE STAT3 WT): 2.77 DSS
drug sensitivity score (HEK293-SIE STAT3 Y640F): 4.7 DSS

CN(Cc1cnc2nc(N)nc(N)c2n1)c1ccc(C(=O)N[C@@H](CCC(=O)O)C(=O)O)cc1 [Methotrexate]
drug sensitivity score (SNK6): 21.2 DSS
drug sensitivity score (KHYG-1): 15.1 DSS
drug sensitivity score (NK-YS): 18.8 DSS
drug sensitivity score (YT): 15.8 DSS
drug sensitivity score (KAI3): 12.8 DSS
drug sensitivity score (NK-92): 12.2 DSS
drug sensitivity score (NKL): 8.04 DSS
drug sensitivity score (HEK293-SIE STAT3 WT): 1.4 DSS
drug sensitivity score (HEK293-SIE STAT3 Y640F): 0.233 DSS

COc1ccc(-c2cc3c(C)nc(N)nc3n([C@H]3CC[C@H](OCCO)CC3)c2=O)cn1
drug sensitivity score (SNK6): 5.96 DSS
drug sensitivity score (KHYG-1): 13.9 DSS
drug sensitivity score (NK-YS): 15 DSS
drug sensitivity score (YT): 16.1 DSS
drug sensitivity score (KAI3): 9.49 DSS
drug sensitivity score (NK-92): 19.2 DSS
drug sensitivity score (NKL): 15.4 DSS
drug sensitivity score (HEK293-SIE STAT3 WT): 14.9 DSS
drug sensitivity score (HEK293-SIE STAT3 Y640F): 9.1 DSS

COc1c(C)cnc(Cn2cnc3c(Cl)nc(N)nc32)c1C [BIIB021]
drug sensitivity score (SNK6): 25.4 DSS
drug sensitivity score (KHYG-1): 26.4 DSS
drug sensitivity score (NK-YS): 24.7 DSS
drug sensitivity score (YT): 22.2 DSS
drug sensitivity score (KAI3): 26 DSS
drug sensitivity score (NK-92): 23 DSS
drug sensitivity score (NKL): 21.9 DSS
drug sensitivity score (HEK293-SIE STAT3 WT): 15.3 DSS
drug sensitivity score (HEK293-SIE STAT3 Y640F): 9.85 DSS

C[C@@]1(C(=O)Nc2ccc(F)nc2)CCCN1c1nc(Nc2cc(C3CC3)n[nH]2)c2cccn2n1
drug sensitivity score (SNK6): 10.9 DSS
drug sensitivity score (KHYG-1): 7.86 DSS
drug sensitivity score (NK-YS): 11.1 DSS
drug sensitivity score (YT): 5.74 DSS
drug sensitivity score (KAI3): 4.45 DSS
drug sensitivity score (NK-92): 5.6 DSS
drug sensitivity score (NKL): 2.75 DSS
drug sensitivity score (HEK293-SIE STAT3 WT): 1.95 DSS
drug sensitivity score (HEK293-SIE STAT3 Y640F): 8.23 DSS

CN1CC[C@H](c2c(O)cc(O)c3c(=O)cc(-c4ccccc4Cl)oc23)[C@H](O)C1 [Alvocidib]
drug sensitivity score (SNK6): 13.2 DSS
drug sensitivity score (KHYG-1): 21.8 DSS
drug sensitivity score (NK-YS): 22.5 DSS
drug sensitivity score (YT): 23 DSS
drug sensitivity score (KAI3): 24.1 DSS
drug sensitivity score (NK-92): 22.6 DSS
drug sensitivity score (NKL): 21.4 DSS
drug sensitivity score (HEK293-SIE STAT3 WT): 29.5 DSS
drug sensitivity score (HEK293-SIE STAT3 Y640F): 26.5 DSS
